From US8709449B2, “Methods and compositions for improving photodynamic therapy through administration of lipids” (Biolitec Pharma Marketing Ltd, priority 2004, dated 2014)

Legend:
[1] = mTHPC concentration in tumor, skin and plasma of mice after injection (Trial 1 mTHPC, Trial 2 LMF); assay type: in vivo, mouse
Description: FIG. 1—Graph showing meta-tetra(hydroxyphenyl)chlorin (“mTHPC”) concentration in tumor, skin and blood of a mouse after a dose of 10 μg mTHPC.
FIG. 2—Graph showing mTHPC concentration in tumor, skin and blood of a mouse after a dose of 5 μg mTHPC solubilized in Lipofundin MCT 10% (“LMF”).
This formulation is abbreviated “LMF”.

[2] = Clinical monitoring of Foscan skin fluorescence by OBS in patients with basal-cell cancer after Foscan PDT; assay type: in vivo, human; details: ten patients
Description: Ten patients (6 male, 4 female) with basal-cell cancer (BCC) of the skin were treated with Foscan PDT course having a drug dose of 0.05 mg/kg, a drug-light interval 48 hours, and a 50 J/cm^2 light dose. Immediately after the laser treatment these patients were given intravenous drop infusions of 10% Lipofundin (250 ml). Patients were administered a second infusion of 10% Lipofundin solution (250 ml) the next day.
A group of ten patients (6 male, 4 female) with BCC of the skin, were administered Foscan PDT course having a drug dose of 0.05 mg/kg, a drug-light interval 48 hours, and a 50 J/cm^2 light dose. No 10% Lipofundin infusions were administered post-irradiation.
A computer-based spectrometer Optical Biopsy System (OBS) specially tuned for clinical monitoring of skin fluorescence was used to detect and measure skin fluorescence. The OBS uses a 400 nm diode laser to induce FOSCAN fluorescence (wavelength 655 nm) which is then detected and measured by the OBS spectrometer.
Fluorescence measurements were performed in intact skin of the cheek at certain time points after Foscan injection. Fluorescence monitoring began 2 days after Foscan administration and was continued for 7 weeks following Foscan administration. All measurements were performed by using contact tip (FD-1 Handstuck). Each fluorescence measurement was performed 4 times, all results were recorded, and the average value was used for further analysis.

[3] = Skin fluorescence in a dog after simultaneous injection of mTHPC and Lipofundin; assay type: in vivo; details: mTHPC diluted in Lipofundin to 0.75 mg/ml, simultaneous bolus injection
Description: FIG. 4—Graph of results of skin fluorescence in sarcoma and skin of a dog after simultaneous injection of mTHPC and Lipofundin.
In this example, a standard mTHPC solution, having 4 mg of mTHPC per ml of solution (4 mg/ml), was diluted in Lipofundin until the concentration of mTHPC in the mixture is 0.75 mg/ml. The mixture was then injected, thus both the photosensitizer and phospholipids were simultaneously injected. […] As is shown in FIG. 4, after only 6 hours, the fluorescence of the skin was substantially the same as that measured prior to injection, thus the skin was no longer photosensitive after this short amount of time.

time of peak tumor concentration of mTHPC ([1]; Trial 1: mTHPC 10 μg per mouse, Trial 2: LMF, 5 μg mTHPC per mouse solubilized in Lipofundin): 24 h | skin concentration in Trial 1 relative to skin concentration after LMF injection ([1]; after 24 hours, Trial 1 dose twice that of Trial 2): almost four times | tumor concentration in Trial 1 after 12 hours relative to peak tumor concentration in Trial 2 ([1]; mTHPC 10 μg per mouse, 12 hours, versus LMF peak): ⅔ | concentration at 24 h ([1]; skin, other: injection (site not specified), Trial 1, mTHPC 10 μg per mouse, after 24 hours): ~260 ng/g | Number of patients exhibiting no detectable skin fluorescence as detected by OBS ([2]; 7 days after Foscan application, Control Group: Foscan 0.05 mg/kg PDT, no Lipofundin infusions): 0 | Number of patients exhibiting no detectable skin fluorescence as detected by OBS ([2]; 7 days after Foscan application, Experimental Group: Foscan 0.05 mg/kg PDT plus two 250 ml 10% Lipofundin infusions after irradiation): 0 | Number of patients exhibiting no detectable skin fluorescence as detected by OBS ([2]; 14 days after Foscan application, Control Group: Foscan 0.05 mg/kg PDT, no Lipofundin infusions): 0 | Number of patients exhibiting no detectable skin fluorescence as detected by OBS ([2]; 14 days after Foscan application, Experimental Group: Foscan 0.05 mg/kg PDT plus two 250 ml 10% Lipofundin infusions after irradiation): 2 | Number of patients exhibiting no detectable skin fluorescence as detected by OBS ([2]; 21 days after Foscan application, Control Group: Foscan 0.05 mg/kg PDT, no Lipofundin infusions): 2 | Number of patients exhibiting no detectable skin fluorescence as detected by OBS ([2]; 21 days after Foscan application, Experimental Group: Foscan 0.05 mg/kg PDT plus two 250 ml 10% Lipofundin infusions after irradiation): 5 | Number of patients exhibiting no detectable skin fluorescence as detected by OBS ([2]; 28 days after Foscan application, Control Group: Foscan 0.05 mg/kg PDT, no Lipofundin infusions): 7 | Number of patients exhibiting no detectable skin fluorescence as detected by OBS ([2]; 28 days after Foscan application, Experimental Group: Foscan 0.05 mg/kg PDT plus two 250 ml 10% Lipofundin infusions after irradiation): 10 | Number of patients exhibiting no detectable skin fluorescence as detected by OBS ([2]; 35 days after Foscan application, Control Group: Foscan 0.05 mg/kg PDT, no Lipofundin infusions): 10 | Number of patients exhibiting no detectable skin fluorescence as detected by OBS ([2]; 35 days after Foscan application, Experimental Group: Foscan 0.05 mg/kg PDT plus two 250 ml 10% Lipofundin infusions after irradiation): 10 | skin fluorescence after injection [3]: rapid decrease in skin fluorescence | time after which skin fluorescence was substantially the same as prior to injection [3]: 6 h
Structure (SMILES): Oc1cccc(-c2c3nc(c(-c4cccc(O)c4)c4ccc([nH]4)c(-c4cccc(O)c4)c4nc(c(-c5cccc(O)c5)c5ccc2[nH]5)CC4)C=C3)c1 [mTHPC, meta-tetra(hydroxyphenyl)chlorin]
